Experimental findings from paper PMC8305076, “Comprehensive Evaluation of Biological Effects of Pentathiepins on Various Human Cancer Cell Lines and Insights into Their Mode of Action” (International Journal of Molecular Sciences, 2021) are described below.

One assay relates to seven cancer cell lines. Nature of the assay: DCFDA flow cytometric ROS assay, acute. It is filed as cell-based, human. More on the design: key: no impact (0); weak impact (+); strong impact (++). The conditions noted are these: summary grade. As for the experimental part: According to the hypothesized mechanism of action (see Figure 3), pentathiepins can create oxidative stress via generation of reactive sulfur precursors. We have previously reported that a representative pentathiepin can increase the intracellular levels of ROS in two cancer cell lines. This effect was thus further evaluated with the new compounds in seven cell lines (Figure 8). The cells were incubated for 15 min with 25.0 µM pentathiepin and subsequently analyzed by using the intracellular ROS sensor 2′,7′-dichlorodihydrofluorescein diacetate (DCFDA) by flow cytometry.
In order to quantify intracellular ROS, we performed a flow cytometric assay based on the ROS-sensor 2′,7′-dichlorofluorescein diacetate (DCFDA). For acute effects of pentathiepins on intracellular ROS levels, the cells were stained with DCFDA first and subsequently incubated with 25 µM of compound for 10 min. […] Per condition, 250,000 cells were seeded in 2 mL of medium per well of a 6-well plate and allowed to adhere overnight. For measurement of acute ROS, the cells were stained with 1 mL of a 20 µM DCFDA-PBS solution for 30 min under standard incubation conditions. Afterwards, the solution was discarded, and the monolayer washed twice with 1 mL of PBS before 3 mL of medium containing 25 µM of pentathiepin was added for 10 min at 37 °C. After removing the solution and washing again with PBS, the cells were detached by using 0.5 mL of a diluted trypsin/EDTA-PBS solution (25%) and harvested with 1 mL of culture medium by carefully rinsing the wells. The cell suspension was transferred to 1.5 mL tubes, centrifuged for 5 min at 500× g, and washed with 1 mL of PBS. After removing the supernatant, each pellet was resuspended in 0.5 mL of PBS for measurement via the MACSquant Analyzer 10 at λEx/Em = 488/530 nm. Relative ROS levels resulting from treatment with pentathiepin were calculated by relating the fluorescence intensity of treated samples to the negative control. For the experiments covering periods of 24 and 48 h, the cells were incubated with the compounds first and stained with DCFDA afterwards. To assess the influence of additional GSH, we included 3 or 30 µM GSH to the medium containing 25 µM of pentathiepin, and the protocol was followed as described.

Assay [1] deals with HAP-1, HAP-1.KO.GPx1, and Siso. Description: alkaline Comet assay (summary). It is filed as cell-based, human. The conditions noted are these: summary grade. More on the design: key: no impact (0); weak impact (+); strong impact (++). The text has this:
Next, the potential of the pentathiepins 1–6 to damage nuclear DNA was investigated in the cell lines HAP-1, HAP-1.KO.GPx1, and Siso, with different expression levels of GPx1 and CAT (see Figure 7), by Comet Assay (Figure 12) with representative images in the Supplementary Materials (Figure S48).
With this assay, the intensity of DNA damage can be assessed on the level of a single cell, in case of the alkaline version detecting both single and double strand breaks as well as alkali-labile sites. The method presented here is an adaptation of the protocol published by Olive and Banath and based on the distinct electrophoretic mobility of damaged and intact genomic DNA. The latter has a low mobility; does thus not migrate in the electric field; and remains in a nucleoid shape after lysis, referred to as the comet head. In contrast, when strand breaks are created, free charged ends emerge and increase the electrophoretic mobility, prompting DNA segments to drift away from the comet head, thereby forming the so-called comet tail. As descriptor of still intact genomic DNA, the percentage of DNA in the comet head was selected. Per condition, 50,000 cells of either Siso, HAP-1, or HAP-1.KO.GPx1 were diluted in 1 mL of PBS and subsequently treated with either a 1% DMF aqueous solution as negative control, 20 µM of H2O2 as positive control, or 25 µM of pentathiepin for 15 min on ice to impair intracellular DNA repair mechanisms. Afterwards, 400 µL of the cell suspension was blended with 1.2 mL of a 1% low melting point agarose solution (40 °C) and smoothly distributed on agarose-precoated glass slides. Polymerization was finished after 3 min at RT, and the slides were horizontally submerged in alkaline lysis buffer (1.2 M NaCl, 0.1% N-lauryl-sarcosinate, 0.1 M Na-EDTA, 0.26 M NaOH) before storing them at 4 °C overnight. The slides were then rinsed three times in rinse/electrophoresis buffer (0.002 M Na-EDTA, 0.03 M NaOH) before electrophoretic separation was performed for 25 min at 0.6 V/cm. A neutralization step by adding distilled water was followed by staining the slides with 250 µL of an aqueous 10 µg/mL PI solution for 20 min. For visualization and image capturing, a DMi8 fluorescent microscope and LASX software (Leica Microsystems, Wetzlar, Germany) were used, and the comets scored with the help of CometScore2.0 (rexhoover.com). Per condition and replicate, at least 100 comets were analyzed to calculate a mean level of damage.

Structures are written as SMILES.

In the assay on seven cancer cell lines, `CCOc1c2c(c3cnc4[nH]c(-c5ccc(OC)cc5)cc4n13)SSSSS2` [Compound 1, 11-Ethoxy-2-(4-methoxyphenyl)-3H-[1,2,3,4,5]pentathiepino[6′,7′:3,4]pyrrolo[1,2-a]pyrrolo[2,3-e]pyrazine] had an ROS induction of 0. For the same molecule, the Comet formation entry in assay [1] is given as “+”.
The like results for `CCOc1c2c(c3ccc(C(=O)N4CCCCC4)cn13)SSSSS2` [Compound 2, (6-Ethoxy-[1,2,3,4,5]pentathiepino[6,7-a]indolizin-9-yl)(piperidinyl)methanone] were, in that order, “++” and “+”.
`CCOc1c2c(c3ccc(C(=O)N4CCOCC4)cn13)SSSSS2` [Compound 3, (6-Ethoxy-[1,2,3,4,5]pentathiepino[6,7-a]indolizin-9-yl)(morpholino)methanone]: the ROS induction result in the assay on seven cancer cell lines is “++”. In addition, the Comet formation entry in assay [1] was “++”.
For the molecule `CCOc1c2c(c3ccc(C(=O)N(CC)CC)cn13)SSSSS2` [Compound 4, 6-Ethoxy-N,N’-diethyl-[1,2,3,4,5]pentathiepino[6,7-a]indolizine-9-carboxamide], the ROS induction result in the assay with seven cancer cell lines is listed as “++”. For the same molecule, the Comet formation result in assay [1] is given as “++”.
For the molecule `CCOc1c2c(c3ccc(C(=O)N4CCN(C(=O)c5ccc(F)cc5)CC4)cn13)SSSSS2` [Compound 5, (6-Ethoxy-[1,2,3,4,5]pentathiepino[6,7-a]indolizin-9-yl)(4-(4-fluorobenzoyl)piperazinyl)methanone], the ROS induction entry with seven cancer cell lines is “++”. In assay [1], the Comet formation entry is “++”.
Regarding `CCOc1c2c(c3ccc(C(=O)N4CCN(S(=O)(=O)c5ccc(C)cc5)CC4)cn13)SSSSS2` [Compound 6, (6-Ethoxy-[1,2,3,4,5]pentathiepino[6,7-a]indolizin-9-yl)(4-tosylpiperazinyl)methanone], in the assay with seven cancer cell lines, the ROS induction result is “+”. The Comet formation result in assay [1] is “+”.
